In US10358446B2, “Bruton's tyrosine kinase inhibitors” (Zibo Biopolar Changsheng Pharmaceutical Co. Ltd., priority 2015, dated 2019) one finds IC50 data, which are given here for 30 compounds.

BTK, sequence (Q06187 whole entry, species assumed): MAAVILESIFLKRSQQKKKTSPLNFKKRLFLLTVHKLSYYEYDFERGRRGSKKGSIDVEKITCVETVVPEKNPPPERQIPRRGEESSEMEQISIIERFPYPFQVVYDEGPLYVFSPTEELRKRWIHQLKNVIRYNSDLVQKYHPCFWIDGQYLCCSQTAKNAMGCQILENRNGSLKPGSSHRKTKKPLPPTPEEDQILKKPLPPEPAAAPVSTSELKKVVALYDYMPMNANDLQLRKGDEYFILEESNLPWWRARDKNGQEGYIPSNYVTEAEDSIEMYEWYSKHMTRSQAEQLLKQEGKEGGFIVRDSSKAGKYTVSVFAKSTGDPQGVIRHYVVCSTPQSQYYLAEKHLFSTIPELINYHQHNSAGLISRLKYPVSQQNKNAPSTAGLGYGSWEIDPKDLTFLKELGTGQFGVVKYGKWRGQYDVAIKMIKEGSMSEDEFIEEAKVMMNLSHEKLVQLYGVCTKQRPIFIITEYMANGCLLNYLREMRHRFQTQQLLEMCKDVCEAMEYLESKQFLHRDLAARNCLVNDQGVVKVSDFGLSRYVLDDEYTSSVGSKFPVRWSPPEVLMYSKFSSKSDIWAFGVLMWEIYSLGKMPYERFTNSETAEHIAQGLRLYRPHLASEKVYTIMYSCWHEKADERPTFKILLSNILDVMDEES

The test concerns the target BTK (Homo sapiens (Human), UniProt Q06187). Put plainly: Btk kinase assay (HTRF). Format: biochemical. To be noted: [ATP]=80 μM, BTK=3.4 nM; read-out: BTK Inhibition. On the procedure:
Btk kinase activity was determined using a homogenous time resolved fluorescence (HTRF) methodology. Measurements were performed in a reaction volume of 15 μL using 384-well assay plates. Kinase enzyme, inhibitor, ATP and 1 μM peptide substrate were incubated in a reaction buffer compose of Hepes 50 mM (pH7.0), NaN3 0.02%, BSA 0.01%, Orthocanadate 0.1 mM. After one hour, the kinase reaction was quenched by the addition of […] antibody and XL-665 in 1× Detection buffer containing 60 mM EDTA (Cisbio), and the mixture was allowed to incubate for one hour. The HTRF signal was measured on a multimode plate reader (EnVision® Multilabel Reader, Perkin Elmer) with an excitation wavelength (λEx) of 330 nm and detection wavelengths (λEm) of 615 and 665 nrm. Activity was determined by the ratio of the fluorescence at 665 nm to that at 615 nm. For each compound, enzyme activity as measured at various concentrations of compound, Negative control reactions were performed in the absence of inhibitor in two replicates and eight no enzyme controls were used to determine baseline fluorescence levels. IC50s were obtained according to the equation: […] For BTK assay, [ATP]=80 μM, BTK=3.4 nM.
On the technique in general: TR-FRET usually uses a lanthanide donor and a delayed reading to cut background.
Turning to `C=CC(=O)Nc1cccc(-n2c(=O)n(-c3ccc(Oc4ccccc4)c(C)c3)c3cnccc32)c1` [Example 27, N-(3-(3-(3-methyl-4-phenoxyphenyl)-2-oxo-2,3-dihydro-1H-imidazo [4,5-c]pyridin-1-yl)phenyl)acrylamide], the IC50 lay within 1000 to 10000 nM.

Take `C=CC(=O)N1CCC[C@@H](n2c(=O)n(-c3ccc(Oc4cccc(C)c4)c(Cl)c3)c3cnccc32)C1` [Example 108, (R)-1-(1-acryloylpiperidin-3-yl)-3-(3-chloro-4-(m-tolyloxy)phenyl)-1H-imidazo[4,5-c]pyridin-2(3H)-one]: the IC50 was in the range of 10 to 100 nM.

In the case of `O=C(O)C1CCCC(n2c(=O)n(-c3ccc(Oc4ccccc4)cc3)c3cnccc32)C1` (stereo not drawn) [Example 193, 3-(2-oxo-3-(4-phenoxyphenyl)-2,3-dihydro-1H-imidazo[4,5-c]pyridin-1-yl)cyclohexanecarboxylic acid], the IC50 lay within 1000 to 10000 nM.

As for `C=CC(=O)Nc1cccc(-n2c(=O)n(-c3ccc(OCc4ccccc4)cc3)c3cnccc32)c1` [Example 239], the IC50 is 100 to 1000 nM.

For the compound `C=CC(=O)N1CC[C@@H](n2c(=O)n(-c3ccc(OCc4ccc(Cl)cc4Cl)c(Cl)c3)c3cnccc32)C1` [Example 208, (R)-1-(1-acryloylpyrrolidin-3-yl)-3-(3-chloro-4-((2,4-dichlorobenzyl)oxy)phenyl)-1H-imidazo[4,5-c]pyridin-2(3H)-one], the IC50 fell in the range of 100 to 1000 nM.

With `C=CC(=O)Nc1cccc(-n2c(=O)n(-c3ccc(Oc4cccc(OC(C)C)c4)c(F)c3)c3cnccc32)c1` [Example 48, N-(3-(3-(3-fluoro-4-(3-isopropoxyphenoxy)phenyl)-2-oxo-2,3-dihydro-1H-imidazo[4,5-c]pyridin-1-yl)phenyl)acrylamide], the IC50 fell in the range of 10 to 100 nM.

Regarding `C=CC(=O)N1CC[C@@H](n2c(=O)n(-c3ccc(Oc4ccc(OC)cc4)c(Cl)c3)c3cnccc32)C1` [Example 42, (R)-1-(1-acryloylpyrrolidin-3-yl)-3-(3-chloro-4-(4-methoxyphenoxy)phenyl)-1H-imidazo[4,5-c]pyridine-2(3H)-one], the IC50 lay within 10 to 100 nM.

For the compound `C=CC(=O)N1CC[C@@H](n2c(=O)n(-c3ccc(OCc4ccccc4C(F)(F)F)c(Cl)c3)c3cnccc32)C1` [Example 203, (R)-1-(1-acryloylpyrrolidin-3-yl)-3-(3-chloro-4-((2-(trifluoromethyl)benzyl)oxy)phenyl)-1H-imidazo[4,5-c]pyridin-2(3H)-one], the IC50 is 100 to 1000 nM.

As for `C=CC(=O)N1CC[C@@H](n2c(=O)n(-c3ccc(OCc4ccc(F)c(F)c4)c(Cl)c3)c3cnccc32)C1` [Example 201, (R)-1-(1-acryloylpyrrolidin-3-yl)-3-(3-chloro-4-((3,4-difluorobenzyl)oxy)phenyl)-1H-imidazo[4,5-c]pyridine-2(3H)-one], the IC50 lay within 10 to 100 nM.

As for `C=CS(=O)(=O)N1CC[C@@H](n2c(=O)n(-c3ccc(Oc4ccccc4)c(Cl)c3)c3cnccc32)C1` [Example 23, (R)-3-(3-chloro-4-phenoxyphenyl)-1-(1-(vinylsulfonyl)pyrrolidin-3-yl)-1H-imidazo[4,5-c]pyridin-2(3H)-one], the IC50 lay in the range of 10 to 100 nM.

Regarding `C=CC(=O)Nc1cccc(-n2c(=O)n(-c3ccc(Oc4ccc(C#N)cc4)cc3)c3cnccc32)c1` [Example 162, N-(3-(3-(4-(4-cyanophenoxy)phenyl)-2-oxo-2,3-dihydro-1H-imidazo[4,5-c]pyridin-1-yl)phenyl)acrylamide], the IC50 was 100 to 1000 nM.

As for `C=CC(=O)Nc1cccc(-n2c(=O)n(-c3ccc(Oc4ccccc4)cc3)c3ccncc32)c1` [Example 121, N-(3-(2-oxo-1-(4-phenoxyphenyl)-1H-imidazo[4,5-c]pyridin-3(2H)-yl)phenyl)acrylamide], the IC50 was in the range of 100 to 1000 nM.

For `C=CC(=O)N1CC[C@@H](n2c(=O)n(-c3ccc(Oc4ccccc4)cc3)c3cccnc32)C1` [Example 120, (R)-3-(1-acryloylpyrrolidin-3-yl)-1-(4-phenoxyphenyl)-1H-imidazo[4,5-b]pyridin-2(3H)-one], the IC50 fell in the range of 1000 to 10000 nM.

On to `C=CC(=O)N1CCC[C@@H](n2c(=O)n(-c3ccc(Oc4cccc(Cl)c4Cl)cc3)c3cnccc32)C1` [Example 100, (R)-1-(1-acryloylpiperidin-3-yl)-3-(4-(2,3-dichlorophenoxy)phenyl)-1,3-dihydro-2H-imidazo[4,5-c]pyridin-2-one], for which the IC50 lay in the range of 10 to 100 nM.

Take `C=CC(=O)Nc1cccc(-n2c(=O)n(-c3ccc(OCc4ccc(C(F)(F)F)cc4)cc3)c3cnccc32)c1` [Example 242, N-(3-(2-oxo-3-(4-((4-(trifluoromethyl)benzyl)oxy)phenyl)-2,3-dihydro-1H-imidazo[4,5-c]pyridin-1-yl)phenyl)acrylamide]: the IC50 fell in the range of 100 to 1000 nM.

On to `C=CC(=O)N1CC[C@@H](n2c(=O)n(-c3ccc(OCc4ccccc4)c(Cl)c3)c3cnccc32)C1` [Example 197, (R)-1-(1-acryloylpyrrolidin-3-yl)-3-(4-(benzyloxy)-3-chlorophenyl)-1H-imidazo[4,5-c]pyridin-2(3H)-one], for which the IC50 lay in the range of 100 to 1000 nM.

On to `CC(=O)N1CC[C@@H](n2c(=O)n(-c3ccc(Oc4ccccc4)cc3)c3cnccc32)C1` [Example 32, (R)-1-(1-acetylpyrrolidin-3-yl)-3-(4-phenoxyphenyl)-1H-imidazo[4,5-c]pyridin-2(3H)-one], for which the IC50 is ≥ 10000 nM.

As for `C=CC(=O)Nc1cccc(-n2c(=O)n(-c3ccc(OCc4ccc(F)cc4F)cc3)c3cnccc32)c1` [Example 248, N-(3-(3-(4-((2,4-difluorobenzyl)oxy)phenyl)-2-oxo-2,3-dihydro-1H-imidazo[4,5-c]pyridin-1-yl)phenyl)acrylamide], the IC50 fell in the range of 100 to 1000 nM.

As for `CN(C/C=C/C(=O)N1CCC[C@@H](n2c(=O)n(-c3ccc(Oc4ccccc4)cc3)c3cnccc32)C1)C1CC1` [Example 188, (R,E)-1-(1-(4-(cyclopropyl(methyl)amino)but-2-enoyl)piperidin-3-yl)-3-(4-phenoxyphenyl)-1H-imidazo[4,5-c]pyridin-2(3H)-one], the IC50 is 100 to 1000 nM.

Turning to `C=CC(=O)Nc1cccc(-n2c(=O)n(-c3ccc(C(=O)Nc4ccccc4)cc3)c3cnccc32)c1` [Example 254, 4-(1-(3-acrylamidophenyl)-2-oxo-1H-imidazo[4,5-c]pyridin-3(2H)-yl)-N-phenylbenzamide], the IC50 lay within 1000 to 10000 nM.

As for `C=CC(=O)N1CCC(n2c(=O)n(-c3ccc(Oc4cccc(C(F)(F)F)c4)c(Cl)c3)c3cnccc32)C1` (stereo not drawn) [Example 6, 1-(1-acryloylpyrrolidin-3-yl)-3-(3-chloro-4-(3-(trifluoromethyl)phenoxy)phenyl)-1H-imidazo[4,5-c]pyridin-2(3H)-one], the IC50 lay in the range of 10 to 100 nM.

Regarding `C=CC(=O)Nc1cccc(-n2c(=O)n(-c3ccc(OCc4c(F)cccc4F)cc3)c3cnccc32)c1` [Example 226, N-(3-(3-(4-((2,6-difluorobenzyl)oxy)phenyl)-2-oxo-2,3-dihydro-1H-imidazo[4,5-c]pyridin-1-yl)phenyl)acrylamide], the IC50 fell in the range of 100 to 1000 nM.

Consider `C=CC(=O)N1CCC(n2c(=O)n(-c3ccc(Oc4ccncc4)cc3)c3cnccc32)C1` (stereo not drawn) [Example 164, 1-(1-acryloylpyrrolidin-3-yl)-3-(4-(pyridin-4-yloxy)phenyl)-1H-imidazo[4,5-c]pyridin-2(3H)-one], for which the IC50 is 1000 to 10000 nM.

Turning to `C=CC(=O)Nc1cccc(-n2c(=O)n(-c3ccc(OCc4ccccn4)cc3)c3cnccc32)c1` [Example 196, N-(3-(2-oxo-3-(4-(pyridin-2-ylmethoxy)phenyl)-2,3-dihydro-1H-imidazo[4,5-c]pyridin-1-yl)phenyl)acrylamide], the IC50 was 100 to 1000 nM.

With `C=CC(=O)N1CC[C@@H](n2c(=O)n(-c3ccc(Oc4ccccc4)cc3)c3c(C#N)nccc32)C1` [Example 65], the IC50 lay within 1000 to 10000 nM.

For `C=CC(=O)Nc1cccc(-n2c(=O)n(-c3ccc(Oc4cccc(Cl)c4F)cc3)c3cnccc32)c1` [Example 54, N-(3-(3-(4-(3-chloro-2-fluorophenoxy)phenyl)-2-oxo-2,3-dihydro-1H-imidazo[4,5-c]pyridin-1-yl)phenyl)acrylamide], the IC50 was in the range of 10 to 100 nM.

With `C=CC(=O)Nc1cccc(-n2c(=O)n(-c3ccc(OCc4cc(F)cc(F)c4)cc3)c3cnccc32)c1` [Example 219, N-(3-(3-(4-((3,5-difluorobenzyl)oxy)phenyl)-2-oxo-2,3-dihydro-1H-imidazo[4,5-c]pyridin-1-yl)phenyl)acrylamide], the IC50 is 100 to 1000 nM.

With `C=CC(=O)N1CC[C@@H](n2c(=O)n(-c3ccc(Oc4cccc(F)c4Cl)cc3)c3cnccc32)C1` [Example 102, (R)-1-(1-acryloylpyrrolidin-3-yl)-3-(4-(2-chloro-3-fluorophenoxy)phenyl)-1,3-dihydro-2H-imidazo[4,5-c]pyridin-2-one], the IC50 was 10 to 100 nM.

With `CC#CC(=O)N1CCC[C@@H](n2c(=O)n(-c3ccc(Oc4cccc(OC)c4F)cc3)c3cnccc32)C1` [Example 175, (R)-1-(1-(but-2-ynoyl)piperidin-3-yl)-3-(4-(2-fluoro-3-methoxyphenoxy)phenyl)-1H-imidazo[4,5-c]pyridin-2(3H)-one], the IC50 lay in the range of 100 to 1000 nM.

Turning to `C=CC(=O)N1CCC[C@@H](n2c(=O)n(-c3ccc(Oc4cccc(OC)c4)cc3)c3cnccc32)C1` [Example 118, (R)-1-(1-acryloylpiperidin-3-yl)-3-(4-(3-methoxyphenoxy)phenyl)-1H-imidazo[4,5-c]pyridin-2(3H)-one], the IC50 is 10 to 100 nM.
